Laboratory results taken from PubChem BioAssay (NCI).
“And” between values parts separate entries of the source, which are not always exact repeats. Equal values may be shown once.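 Growth conditions: 96-well plates. Treatment: test compound, 48 hours, 5 concentrations. Analysis: linear interpolation between bracketing concentrations; unreached endpoints set to highest concentration. GI50 = concentration required for 50% inhibition of growth. TGI marks complete inhibition of growth.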

What was measured:
Experiment in all cases: inhibition of tumour cell growth, NCI panel, 48 h
SNB-75 CNS = tested on: SNB-75 CNS
SNB-19 CNS = tested on: SNB-19 CNS
M14 melanoma = tested on: M14 melanoma
A549 NSCLC = tested on: A549 NSCLC
EKVX NSCLC = tested on: EKVX NSCLC
UACC-62 melanoma = tested on: UACC-62 melanoma
OVCAR-5 ovarian = tested on: OVCAR-5 ovarian
SK-MEL-5 melanoma = tested on: SK-MEL-5 melanoma
SW-620 colon = tested on: SW-620 colon
RPMI-8226 leukemia = tested on: RPMI-8226 leukemia

| SMILES | GI50 (SNB-75 CNS) | TGI (SNB-75 CNS) | GI50 (SNB-19 CNS) | TGI (SNB-19 CNS) | GI50 (M14 melanoma) | TGI (M14 melanoma) | GI50 (A549 NSCLC) | TGI (A549 NSCLC) | GI50 (EKVX NSCLC) | TGI (EKVX NSCLC) | GI50 (UACC-62 melanoma) | TGI (UACC-62 melanoma) | GI50 (OVCAR-5 ovarian) | TGI (OVCAR-5 ovarian) | GI50 (SK-MEL-5 melanoma) | TGI (SK-MEL-5 melanoma) | GI50 (SW-620 colon) | TGI (SW-620 colon) | GI50 (RPMI-8226 leukemia) | TGI (RPMI-8226 leukemia) |
| --- | --- | --- | --- | --- | --- | --- | --- | --- | --- | --- | --- | --- | --- | --- | --- | --- | --- | --- | --- | --- |
| Cn1c(=O)c2[nH]cnc2n(C)c1=O.[CH2-]C(Cc1cccc2cc(C(=O)O)c(=O)oc12)OC.[Hg+2].[OH-] (configuration not stated) | 17.7 µM | 32.7 µM | 17.7 µM | 31.6 µM | 16.9 µM | 30.7 µM | 19 µM | 37.4 µM | 20.7 µM | 37.4 µM | 17.3 µM | 31.3 µM | 18.6 µM | 32.7 µM | 17.4 µM | 31.2 µM | 10.8 µM | 28.7 µM | 18.2 µM | 65.1 µM |
| COc1ccc2c(c1)NC(=O)CN2c1nc(C)nc2ccccc12 | 0.00036 µM | > 100 µM | 0.000655 µM | > 100 µM | 0.000336 µM | > 100 µM | 0.000588 µM | > 100 µM | – | > 100 µM | 0.000432 µM | > 100 µM | – | > 100 µM | 0.0004 µM | 0.00186 µM | 0.000487 µM | > 100 µM | 0.000603 µM | > 100 µM |
| CCOC(=O)C1C(=O)c2cccc(OC)c2C2COC(=O)N12 (configuration not stated) | – | > 100 µM | – | > 100 µM | – | > 100 µM | – | > 100 µM | – | > 100 µM | – | > 100 µM | – | > 100 µM | – | > 100 µM | – | > 100 µM | – | > 100 µM |
| CCOc1cc[n+](C(=C=[N-])C#N)cc1 | – | > 100 µM | – | > 100 µM | – | > 100 µM | – | > 100 µM | – | > 100 µM | – | > 100 µM | – | > 100 µM | – | > 100 µM | – | > 100 µM | – | > 100 µM |
| CC(=O)OC1(C#N)CC2OC1C1NC21 (configuration not stated) | – | > 100 µM | – | > 100 µM | – | > 100 µM | – | > 100 µM | – | > 100 µM | – | > 100 µM | – | > 100 µM | – | > 100 µM | – | > 100 µM | – | > 100 µM |
| COC(=O)C(=O)C(C(=O)C(=O)Nc1nc(=S)[nH][nH]1)c1nc2ccc([N+](=O)[O-])cc2[nH]c1=O (configuration not stated) | – | > 100 µM | – | > 100 µM | – | > 100 µM | – | > 100 µM | – | > 100 µM | – | > 100 µM | – | > 100 µM | – | > 100 µM | – | > 100 µM | – | > 100 µM |
| CC1SC(c2cccc(Cl)c2)N(NC(=O)C(O)c2ccccc2)C1=O (configuration not stated) | 79.1 µM | > 100 µM | > 100 µM | > 100 µM | > 100 µM | > 100 µM | 86.7 µM | > 100 µM | > 100 µM | > 100 µM | 39 µM | > 100 µM | > 100 µM | > 100 µM | > 100 µM | > 100 µM | > 100 µM | > 100 µM | 43.2 µM | > 100 µM |
| N#CC(CC(=O)O)=C(c1ccccc1)c1ccccc1 | – | > 100 µM | – | > 100 µM | – | > 100 µM | – | > 100 µM | – | > 100 µM | – | > 100 µM | – | > 100 µM | – | > 100 µM | – | > 100 µM | – | > 100 µM |
| O=C1CC2OCC=C3CN4CCC56c7ccccc7N1C5C2C3CC46 (configuration not stated) (tested in a mixture with another compound) | > 50 µg/mL | > 50 µg/mL | > 50 µg/mL | > 50 µg/mL | > 50 µg/mL | > 50 µg/mL | > 50 µg/mL | > 50 µg/mL | > 50 µg/mL | > 50 µg/mL | > 50 µg/mL | > 50 µg/mL | > 50 µg/mL | > 50 µg/mL | > 50 µg/mL | > 50 µg/mL | > 50 µg/mL | > 50 µg/mL | > 50 µg/mL | > 50 µg/mL |
| CCCC(CCC)C(=O)O | > 100 µM | > 100 µM and 18400 µM | > 20000 µM | > 20000 µM | 19900 µM | > 20000 µM | > 100 µM | > 20000 µM | > 20000 µM | > 20000 µM | > 100 µM | > 20000 µM | > 20000 µM | > 20000 µM | – | 9570 µM | > 100 µM | > 20000 µM | > 100 µM | > 20000 µM |
| Cc1ccccc1NC(=O)CC(=O)n1nc(-c2ccccc2)c(N=Nc2ccc([N+](=O)[O-])cc2)c1-c1ccccc1 | – | > 100 µM | – | > 100 µM | – | 33.3 µM | – | 41.8 µM | – | 88.1 µM | – | 29.6 µM | – | > 100 µM | – | 25.9 µM | – | > 100 µM | – | 69.4 µM |
| CC1=C(C(=O)NCc2ccccc2)C(c2ccccc2O)C(C(=O)NCc2ccccc2)=C(C)N1 | – | > 71.3 µM | – | 42.4 µM | – | 32.4 µM | – | 44.6 µM | – | 45.6 µM | – | 34 µM | – | 38 µM | – | 28.6 µM | – | 32.3 µM | – | > 100 µM |
| COC(=O)CCc1c(/C=C2\N=C(c3ccc[nH]3)C=C2OC)[nH]c(C)c1C(=O)OCc1ccccc1 | 0.315 µM | 1.8 µM | 1.17 µM | > 100 µM | 0.256 µM | 0.784 µM | 0.945 µM | 38.7 µM | 0.733 µM | 5.29 µM | 0.216 µM | 0.491 µM | 0.684 µM | 9.84 µM | 0.47 µM | 1.75 µM | 0.304 µM | 3.03 µM | 0.343 µM | 2.27 µM |
| NC(C(=O)O)c1ccc(C(=O)O)cc1 (configuration not stated) | – | > 100 µM | – | > 100 µM | – | > 100 µM | – | > 100 µM | – | > 100 µM | – | > 100 µM | – | > 100 µM | – | > 100 µM | – | > 100 µM | – | > 100 µM |
| NS(=O)(=O)c1ccc(N=Nc2c(=O)[nH]c3ccc4[nH]cccc4c23)cc1 | 0.404 µM | 1.3 µM | 0.428 µM | > 25 µM | 0.82 µM | 5.64 µM | 1.89 µM | > 25 µM | 2.1 µM | > 25 µM | 0.487 µM | 1.62 µM | 1.02 µM | > 25 µM | 0.256 µM | 4.69 µM | 0.356 µM | > 7.23 µM | 1.97 µM | 14.2 µM |
| Nc1ncnc2c1ncn2C1OC(C(=O)OCCO)C(O)C1O (configuration not stated) | – | > 100 µM | – | > 100 µM | – | > 100 µM | – | > 100 µM | – | > 100 µM | – | > 100 µM | – | > 100 µM | – | > 100 µM | – | > 100 µM | – | > 100 µM |
| CC(=O)Nc1ccccc1S(=O)c1ccccc1 (configuration not stated) | – | > 100 µM | – | > 100 µM | – | > 100 µM | – | > 100 µM | – | > 100 µM | – | > 100 µM | – | > 100 µM | – | > 100 µM | – | > 100 µM | – | > 100 µM |
| CC(=O)Nc1ccc(OCC(O)CO)cc1 (configuration not stated) | – | > 100 µM | – | > 100 µM | – | > 100 µM | – | > 100 µM | – | > 100 µM | – | > 100 µM | – | > 100 µM | – | > 100 µM | – | 21.6 µM | – | 43.9 µM |
| O=C1C=C(OCC=C(Cl)Cl)C(=O)c2ccccc21 | 7.4 µM | 56.9 µM | > 91.1 µM | > 100 µM | 3.73 µM | 30.2 µM | 33.2 µM | > 100 µM | 3.33 µM | 28.2 µM | 2.51 µM | 7.64 µM | 8.92 µM | > 82.1 µM | 1.53 µM | 3.85 µM | 3.51 µM | 11.1 µM | 0.955 µM | > 20.8 µM |
| COn1cc(C(=O)N=C(SC)SC)c2ccccc21 | 68.7 µM | > 100 µM | 40.2 µM | > 100 µM | 18.4 µM | 48.1 µM | 23.9 µM | 87.6 µM | 25 µM | 77.5 µM | 20.2 µM | 55.8 µM | 26.2 µM | 73.7 µM | 15.7 µM | 34.4 µM | 34.8 µM | > 100 µM | 17.9 µM | > 100 µM |
| N#CC12CC3(CCC1CCC1(C2)OCCO1)OCCO3 (configuration not stated) | – | > 100 µM | – | > 100 µM | – | > 100 µM | – | > 100 µM | – | > 100 µM | – | > 100 µM | – | > 100 µM | – | > 100 µM | – | > 100 µM | – | > 100 µM |
